Measurements from ChEMBL document CHEMBL4145537, “Synthesis and biological evaluation of novel quinazoline-4-piperidinesulfamide derivatives as inhibitors of NPP1” (Eur J Med Chem, 2018).

Tests used:
[1] = target: T1, Ectonucleotide pyrophosphatase/phosphodiesterase family member 1 (Homo sapiens) (UniProt P22413); assay: Inhibition of human GFP-fused NPP1 expressed in COS7 cells at 1 uM using pnp-TMP as substrate after 60 mins relative to control; type: cell-based
T1 sequence (whole entry): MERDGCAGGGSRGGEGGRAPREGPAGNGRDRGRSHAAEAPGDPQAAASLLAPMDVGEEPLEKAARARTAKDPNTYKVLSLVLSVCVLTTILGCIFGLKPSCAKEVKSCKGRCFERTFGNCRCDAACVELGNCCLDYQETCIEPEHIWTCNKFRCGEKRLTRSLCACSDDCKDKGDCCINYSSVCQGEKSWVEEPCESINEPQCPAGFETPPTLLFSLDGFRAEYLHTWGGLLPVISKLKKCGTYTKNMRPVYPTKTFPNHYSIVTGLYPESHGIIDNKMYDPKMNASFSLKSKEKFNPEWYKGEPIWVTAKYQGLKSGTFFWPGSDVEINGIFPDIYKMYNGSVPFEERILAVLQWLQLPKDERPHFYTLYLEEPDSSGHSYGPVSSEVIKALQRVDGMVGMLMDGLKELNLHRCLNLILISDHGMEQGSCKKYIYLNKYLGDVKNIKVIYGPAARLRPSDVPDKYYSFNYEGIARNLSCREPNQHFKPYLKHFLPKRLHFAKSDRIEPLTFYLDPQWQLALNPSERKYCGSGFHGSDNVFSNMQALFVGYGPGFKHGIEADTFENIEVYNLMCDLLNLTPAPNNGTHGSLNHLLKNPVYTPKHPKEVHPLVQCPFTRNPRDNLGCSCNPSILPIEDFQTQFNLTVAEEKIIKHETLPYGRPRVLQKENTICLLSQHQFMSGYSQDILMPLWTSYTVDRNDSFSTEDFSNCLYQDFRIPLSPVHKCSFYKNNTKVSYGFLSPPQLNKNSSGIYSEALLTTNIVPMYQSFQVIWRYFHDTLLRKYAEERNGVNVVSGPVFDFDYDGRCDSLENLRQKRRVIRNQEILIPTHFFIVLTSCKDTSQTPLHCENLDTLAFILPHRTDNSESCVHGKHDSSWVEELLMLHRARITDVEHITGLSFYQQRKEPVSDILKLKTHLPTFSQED

[2] = target: T2, Ectonucleotide pyrophosphatase/phosphodiesterase family member 1 (Homo sapiens, UniProt P22413); assay: Inhibition of human GFP-fused NPP1 expressed in COS7 cells using pnp-TMP as substrate after 60 mins; type: cell-based
T2 sequence (P22413 whole entry): T1 sequence (whole entry)

inhibition [1] [%]	Ki [2] [nM]	Structure (SMILES)
88	101	COc1cccc(/C=C/c2nc(N3CCC(CCNS(N)(=O)=O)CC3)c3cc(OC)c(OC)cc3n2)c1
74	302	COc1ccccc1/C=C/c1nc(N2CCC(CCNS(N)(=O)=O)CC2)c2cc(OC)c(OC)cc2n1
< 1	–	CCCCOc1cc2c(Cl)ncnc2cc1OC
71	242	COc1ccc2ncnc(N3CCC(CCNS(N)(=O)=O)CC3)c2c1
45	699	COc1cc2ncnc(N3CCC(CCN)CC3)c2cc1OC
85	71	COc1cc2nc(/C=C/c3ccccn3)nc(N3CCC(CCNS(N)(=O)=O)CC3)c2cc1OC
48	1310	CCOc1cc2c(Cl)ncnc2cc1OC
78	211	COc1cc2nc(/C=C/c3ccccc3F)nc(N3CCC(CCNS(N)(=O)=O)CC3)c2cc1OC
79	218	COc1cc2nc(/C=C/c3ccncc3)nc(N3CCC(CCNS(N)(=O)=O)CC3)c2cc1OC
79	90	COc1cc2nc(CC3OC(=O)c4ccccc43)nc(N3CCC(CCNS(N)(=O)=O)CC3)c2cc1OC (stereo not given)
9	–	COc1cc2ncnc(N3CCC(CCNC(C)=O)CC3)c2cc1OC
< 1	–	COc1cc2ncnc(N3CCC(CC#N)CC3)c2cc1OC
12	–	COc1cc2ncnc(N3CCC(CCNS(C)(=O)=O)CC3)c2cc1OC
86	58	COc1cc2nc(/C=C/c3cccnc3)nc(N3CCC(CCNS(N)(=O)=O)CC3)c2cc1OC
87	–	COc1cc2ncnc(N3CCC(CCNS(N)(=O)=O)CC3)c2cc1OC
66	231	COc1ccc(/C=C/c2nc(N3CCC(CCNS(N)(=O)=O)CC3)c3cc(OC)c(OC)cc3n2)cc1
70	465	COc1cc2nc(/C=C/c3ccc(F)cc3)nc(N3CCC(CCNS(N)(=O)=O)CC3)c2cc1OC
15	7970	COc1cc2ncnc(Cl)c2cc1OC/C=C/S(F)(F)(F)(F)F
69	366	COc1cc2nc(CCc3ccc(F)cc3)nc(N3CCC(CCNS(N)(=O)=O)CC3)c2cc1OC
33	1840	COc1cc2nc(/C=C/c3ccccc3)nc(N3CCC(CCNS(N)(=O)=O)CC3)c2cc1OC
74	297	COC(=O)c1cccc(/C=C/c2nc(N3CCC(CCNS(N)(=O)=O)CC3)c3cc(OC)c(OC)cc3n2)c1
14	3580	COc1cc2nc(/C=C/c3cccc(F)c3)nc(N3CCC(CCNS(N)(=O)=O)CC3)c2cc1OC
12	–	CCOC(=O)C1CCN(c2ncnc3cc(OC)c(OC)cc23)CC1
43	1340	COC(=O)c1ccc(/C=C/c2nc(N3CCC(CCNS(N)(=O)=O)CC3)c3cc(OC)c(OC)cc3n2)cc1
29	3240	CCCOc1cc2c(Cl)ncnc2cc1OC
11	–	COc1cc2ncnc(N3CCC(CO)CC3)c2cc1OC
